The assay relates to cellular pERK in NCI-H1975 cells (EGFR/L858R-T790M). The experiment in a line: pERK potency assay (In Cell ELISA). It is filed as cell-based. As to conditions: Homo sapiens, 1 h compound incubation. From the text: The assay measures the ability of a compound to inhibit SOS1 function in cells. SOS1 activates RAS proteins by catalyzing the conversion of RAS GDP to RAS GTP in response to receptor tyrosine kinase activation. Activation of RAS induces a sequence of cellular signaling events that result in increased phosphorylation of ERK at Threonine 202 and Tyrosine 204 (pERK). The procedure (i.e., In Cell ELISA as described below) measures the level of cellular pERK in response to a test compound in NCI-H1975 cells (EGFR/L858R-T790M).
First, NCI-H1975 cells were grown and maintained using media and procedures recommended by the ATCC. A day before compound addition, cells were plated in poly-D-lysine coated 96-well cell culture plates (Corning® BioCoat® Cat #356640) at 25000 cells/well/100 μL and grown overnight in an incubator at 37° C. with 5% CO2. A solution of a test compound was prepared with 3-fold serial dilutions in DMSO having a top concentration of 6 mM. On the day of the assay, 50 μL of a test compound dilution in media was added to each well of cell culture plate with a final compound concentration in the range of 0.001 μM to 20 μM. After addition of the compound, cells were incubated for 1 h at 37° C. with 5% CO2, after which the culture medium was removed. Cells were fixed with 4% formaldehyde in phosphate-buffered saline (PBS) and incubated at RT for 20 min. The plate was washed three times with PBST (PBS with 0.05% Tween®-20), followed by incubation with 100 μL of pre-cooled methanol at −20° C. for 20 min. After incubation, methanol was removed. The plate was again washed with PBST. Cells were then permeabilized with 100 μL/well of 0.1% Triton X-100 in PBS at RT for 20 min and then quenched with a quenching buffer (PBST containing 1% H2O2 and 0.1% sodium azide) for 20 min at RT with gentle shaking. After washing once with PBST, a blocking buffer (250 uL/well, Pierce™ Protein-Free-PBS Blocking Buffer, Cat #37572) was then added to the cells for 1-h incubation at RT, followed by an anti-pERK antibody (cell signaling, 1:1000 dilution in 5% BSA in PBST) incubation overnight at 4° C. and a secondary antibody-HRP (Jackson immunoresearch, 1:3000 dilution in 5% BSA in PBST) incubation at RT for 1 h. PBST wash was carried out after each step three times. Before the addition of a substrate (Advansta ELISABright™), the plate was washed with PBS twice to remove detergent residues. The Cellular pERK level was determined using the microplate reader (Biotek Synergy™ H1) to detect the chemiluminescence signal. IC50 was determined by fitting a 4-parameter sigmoidal concentration-response model.
For orientation: In an ELISA, binding on a coated surface is turned into a signal by an enzyme label.

SMILES strings stand for the structures. Counter-ions that a name gives are not always drawn. Where only a bound is given, the exact number is not on record here.

Usually IC50 stands for the midpoint of a concentration-inhibition curve. Consider `CC(=O)N1CCC(F)(c2cc3/c(=N/[C@H](C)c4cccc(C(F)(F)F)c4C)nc(C)n(C)c3cn2)CC1` [Compound 1, (R,Z)-1-(4-(1,2-dimethyl-4-((1-(2-methyl-3-(trifluoromethyl)phenyl)ethyl)imino)-1,4-dihydropyrido[3,4-d]pyrimidin-6-yl)-4-fluoropiperidin-1-yl)ethan-1-one], for which the IC50 is below 100 nM.
For the compound `CC(=O)N1CC=C(c2cc3/c(=N/[C@H](C)c4cccc(C(F)(F)F)c4C)nc(C)n(C)c3cn2)CC1` [Compound 2, (R,Z)-1-(4-(1,2-dimethyl-4-((1-(2-methyl-3-(trifluoromethyl)phenyl)ethyl)imino)-1,4-dihydropyrido[3,4-d]pyrimidin-6-yl)-3,6-dihydropyridin-1(2H)-yl)ethan-1-one], the IC50 is below 100 nM.
Consider `CC(=O)N1CC=C(c2cc3/c(=N/[C@H](C)c4cccc(C(F)(F)F)c4C)nc(C4CC4)n(C)c3cn2)CC1` [Compound 3], for which the IC50 was below 100 nM.
`CC(=O)N1CC=C(c2cc3/c(=N/[C@H](C)c4cccc(C(F)F)c4F)nc(C)n(C)c3cn2)CC1` [Compound 4, (R,Z)-1-(4-(4-((1-(3-(difluoromethyl)-2-fluorophenyl)ethyl)imino)-1,2-dimethyl-1,4-dihydropyrido[3,4-d]pyrimidin-6-yl)-3,6-dihydropyridin-1(2H)-yl)ethan-1-one]: the IC50 is below 100 nM.
For `CC(=O)N1CCC(O)(c2cc3/c(=N/[C@H](C)c4cccc(C(F)F)c4F)nc(C)n(C)c3cn2)CC1` [Compound 5, (R,Z)-1-(4-(4-((1-(3-(difluoromethyl)-2-fluorophenyl)ethyl)imino)-1,2-dimethyl-1,4-dihydropyrido[3,4-d]pyrimidin-6-yl)-4-hydroxypiperidin-1-yl)ethan-1-one], the IC50 was below 100 nM.
Regarding `CC(=O)N1CCC(F)(c2cc3/c(=N/[C@H](C)c4cccc(C(F)F)c4F)nc(C)n(C)c3cn2)CC1` [Compound 6, (R,Z)-1-(4-(4-((1-(3-(difluoromethyl)-2-fluorophenyl)ethyl)imino)-1,2-dimethyl-1,4-dihydropyrido[3,4-d]pyrimidin-6-yl)-4-fluoropiperidin-1-yl)ethan-1-one], the IC50 was below 100 nM.
To `CC(=O)N1CC=C(c2cc3/c(=N/[C@H](C)c4cccc(C#N)c4C)nc(C)n(C)c3cn2)CC1` [Compound 7] belongs below 100 nM; to `CC(=O)N1CCC(F)(c2cc3/c(=N/[C@H](C)c4cccc(C#N)c4C)nc(C)n(C)c3cn2)CC1` [Compound 8], below 100 nM; to `CC(=O)N1CC=C(c2cc3/c(=N/[C@H](C)c4cccc(C(F)(F)F)c4C)nc(C)n(C(C)C)c3cn2)CC1` [Compound 9], below 100 nM.
As to `CC(=O)N1CC=C(c2cc3/c(=N/[C@H](C)c4cccc(C(F)(F)F)c4C)nc(C)n(C4CC4)c3cn2)CC1` [Compound 10], the IC50 was below 100 nM.
Turning to `C#C[C@@H](/N=c1\nc(C)n(C)c2cnc(C3=CCN(C(C)=O)CC3)cc12)c1cccc(C(F)(F)F)c1C` [Compound 11], the IC50 was below 100 nM.
`CC(=O)N1CC=C(c2cnc3c(c2)/c(=N/[C@H](C)c2cccc(C(F)(F)F)c2C)nc(C)n3C)CC1` [Compound 12]: the IC50 was below 100 nM.
Take `CC(=O)N1CCC(F)(c2cnc3c(c2)/c(=N/[C@H](C)c2cccc(C(F)(F)F)c2C)nc(C)n3C)CC1` [Compound 13]: the IC50 is below 100 nM.
On to `CC(=O)N1CC=C(c2cc3/c(=N/[C@H](C)c4cccc(C(F)(F)F)c4C)ncn(C4CC4)c3cn2)CC1` [Compound 14], for which the IC50 is below 100 nM.
Consider `CC(=O)N1CCC(F)(c2cc3/c(=N/[C@H](C)c4cccc(C(F)(F)F)c4C)ncn(C)c3cn2)CC1` [Compound 15, (R,Z)-1-(4-fluoro-4-(1-methyl-4-((1-(2-methyl-3-(trifluoromethyl)phenyl)-ethyl)imino)-1,4-dihydropyrido[3,4-d]pyrimidin-6-yl)piperidin-1-yl)ethan-1-one hydrochloride], for which the IC50 is below 100 nM.
For `CC(=O)N1CC=C(c2cc3/c(=N/[C@H](C)c4cccc(C(F)(F)F)c4C)ncn(C)c3cn2)CC1` [Compound 16], the IC50 was below 100 nM.
With `CC(=O)N1CCC(F)(c2ccc3c(c2)/c(=N/[C@H](C)c2cccc(C(F)(F)F)c2C)ncn3C)CC1` [Compound 17], the IC50 was below 100 nM.
Regarding `Cc1c([C@@H](C)/N=c2\nc(C)n(C)c3cnc(C4(C(F)F)CC4)cc23)cccc1C(F)(F)F` [Compound 18, (R,Z)-6-(1-(difluoromethyl)cyclopropyl)-1,2-dimethyl-N-(1-(2-methyl-3-(trifluoromethyl)phenyl)ethyl)pyrido[3,4-d]pyrimidin-4(1H)-imine], the IC50 was below 100 nM.
For `Cc1c(C#N)cccc1[C@@H](C)/N=c1\nc(C)n(C)c2cnc(C3(C(F)F)CC3)cc12` [Compound 19], the IC50 is below 100 nM.
As to `C[C@@H](/N=c1\ncn(C)c2cnc(C3(C(F)F)CC3)cc12)c1cccc(C(F)F)c1F` [Compound 20, (R,Z)—N-(1-(3-(difluoromethyl)-2-fluorophenyl)ethyl)-6-(1-(difluoromethyl)-cyclopropyl)-1-methylpyrido[3,4-d]pyrimidin-4(1H)-imine], the IC50 is below 100 nM.
For the compound `C#C[C@@H](/N=c1\ncn(C)c2cc(=O)n(C3(C(F)F)CC3)cc12)c1cccc(C(F)(F)F)c1C` [Compound 21, (R,Z)-6-(1-(difluoromethyl)cyclopropyl)-1-methyl-4-((1-(2-methyl-3-(trifluoromethyl)phenyl)prop-2-yn-1-yl)imino)-4,6-dihydropyrido[4,3-d]pyrimidin-7(1H)-one], the IC50 is below 100 nM.
Take `COc1nc(C2(O)CCN(C(C)=O)CC2)cc2/c(=N/[C@H](C)c3cccc(C(F)(F)F)c3C)ncn(C)c12` [Compound 22, (R,Z)-1-(4-hydroxy-4-(8-methoxy-1-methyl-4-((1-(2-methyl-3-(trifluoromethyl)phenyl)ethyl)imino)-1,4-dihydropyrido[3,4-d]pyrimidin-6-yl)piperidin-1-yl)ethan-1-one]: the IC50 is below 100 nM.
As to `COc1nc(C2(F)CCN(C(C)=O)CC2)cc2/c(=N/[C@H](C)c3cccc(C(F)(F)F)c3C)ncn(C)c12` [Compound 23, (R,Z)-1-(4-fluoro-4-(8-methoxy-1-methyl-4-((1-(2-methyl-3-(trifluoromethyl)phenyl)ethyl)imino)-1,4-dihydropyrido[3,4-d]pyrimidin-6-yl)piperidin-1-yl)ethan-1-one], the IC50 was below 100 nM.
As for `COc1nc(C2(O)CC(C)(C)N(C(C)=O)C(C)(C)C2)cc2/c(=N/[C@H](C)c3cccc(C(F)(F)F)c3C)ncn(C)c12` [Compound 24, (R,Z)-1-(4-hydroxy-4-(8-methoxy-1-methyl-4-((1-(2-methyl-3-(trifluoromethyl)phenyl)ethyl)imino)-1,4-dihydropyrido[3,4-d]pyrimidin-6-yl)-2,2,6,6-tetramethylpiperidin-1-yl)ethan-1-one], the IC50 is below 100 nM.
Take `CC(=O)N1CC=C(c2cc3/c(=N/[C@H](C)c4cccc(C(F)(F)F)c4C)nc4n(c3cn2)CCC4)CC1` [Compound 25, (R,Z)-1-(4-(5-((1-(2-methyl-3-(trifluoromethyl)phenyl)ethyl)imino)-5,7,8,9-tetrahydropyrido[4,3-e]pyrrolo[1,2-a]pyrimidin-3-yl)-3,6-dihydropyridin-1(2H)-yl)ethan-1-one]: the IC50 was below 100 nM.
With `CC(=O)N1CCC(O)(c2cc3/c(=N/[C@H](C)c4cccc(C(F)(F)F)c4C)nc4n(c3cn2)CCC4)CC1` [Compound 26, (R,Z)-1-(4-hydroxy-4-(5-((1-(2-methyl-3-(trifluoromethyl)phenyl)ethyl)-imino)-5,7,8,9-tetrahydropyrido[4,3-e]pyrrolo[1,2-a]pyrimidin-3-yl)piperidin-1-yl)ethan-1-one], the IC50 is below 100 nM.
With `CC(=O)N1CCC(F)(c2cc3/c(=N/[C@H](C)c4cccc(C(F)(F)F)c4C)nc4n(c3cn2)CCC4)CC1` [Compound 27, (R,Z)-1-(4-fluoro-4-(5-((1-(2-methyl-3-(trifluoromethyl)phenyl)ethyl)-imino)-5,7,8,9-tetrahydropyrido[4,3-e]pyrrolo[1,2-a]pyrimidin-3-yl)piperidin-1-yl)ethan-1-one], the IC50 is below 100 nM.
Turning to `CC(=O)N1CCC(O)(c2cc3/c(=N/[C@H](C)c4cccc(C(F)F)c4F)nc4n(c3cn2)CCC4)CC1` [Compound 28], the IC50 was below 100 nM.
As to `CC(=O)N1CCC(F)(c2cc3/c(=N/[C@H](C)c4cccc(C(F)F)c4F)nc4n(c3cn2)CCC4)CC1` [Compound 29], the IC50 is below 100 nM.

The record behind these values is patent publication US20240190868A1, “SOS1 INHIBITORS” (Acerand Therapeutics (USA) Limited, priority 2022, published 2024).
